# Experimental data reported in patent US7166744B2, “Retinoid derivatives and methods for producing said compounds and anti-cancer pharmaceutical composition comprising said compounds” (Chebigen Co., Ltd., priority 2001, dated 2007).
# Columns and labels:
# Assay type in all cases: cell-based
# RARγ = target: T1, RARγ (Homo sapiens, UniProt P13631); experiment: CAT reporter assay, RARγ; conditions: 1 μM, control = 1.0; for expression level of CAT enzyme, RARγ −: column '−'
# T1 construct: expressed in transfected cells
# T1 sequence (P13631 1-454): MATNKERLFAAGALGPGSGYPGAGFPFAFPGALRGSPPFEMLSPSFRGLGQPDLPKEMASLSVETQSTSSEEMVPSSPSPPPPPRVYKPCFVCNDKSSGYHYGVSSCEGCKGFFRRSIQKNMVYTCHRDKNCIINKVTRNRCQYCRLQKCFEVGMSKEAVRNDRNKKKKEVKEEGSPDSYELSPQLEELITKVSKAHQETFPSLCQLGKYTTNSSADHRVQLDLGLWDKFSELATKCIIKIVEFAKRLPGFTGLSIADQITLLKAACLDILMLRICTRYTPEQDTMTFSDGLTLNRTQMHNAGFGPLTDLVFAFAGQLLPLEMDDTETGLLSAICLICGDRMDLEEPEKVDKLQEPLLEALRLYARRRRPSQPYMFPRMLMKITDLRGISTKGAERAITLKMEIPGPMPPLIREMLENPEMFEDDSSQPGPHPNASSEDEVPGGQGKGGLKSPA
# From the text: In order to confirm the effect of KCBG60 according to the present invention on retinoid receptor activity, cells were cotransfected with expression vectors of receptor subfamilies and reporter genes. As the reporter gene, chloramphenicol acetyltransferase (CAT) with a transcription control site reactive to respective receptors was used.
# [1] = test system: MDA-MB-231 breast cancer cells; experiment: MTT proliferation assay, MDA-MB-231
# Experimental: (§1) The effects of test compounds on proliferation of various cancer cells was examined by 3-(4,5-dimethylthiazol-2-yl)-2,5-diphenyltetrazolium bromide (MTT, Sigma) assay in a dose dependent manner. In the MTT assay, colon, liver, cervix, ovary, and breast cancer cell lines were treated with test compounds at various concentrations. Living cancer cells reduce MTT to dark blue MTT formazan that would be measured by absorbance.
# (§2) Colon cancer cells, HCT116, DLD-1 and HT29, cervix cancer cells, HeLa and CaSki, ovary cancer cells, SKOV-3, 2774 and OVCAR-3, liver cancer cells, SK-Hep-1, PLCPRF5 and HepG2, and breast cancer cells, ZR75-1 and MDA-MB 231 were seeded at an initial density of 3000 cells per well in 96-well plates. After attachment of cells to the walls of the wells, the medium containing fresh retinoid was treated with various concentrations (0.5 μM, 1 μM, 2.5 μM, 5 μM, 10 μM) for 48 hours. 50 μl of MTT solution (2 mg/ml in PBS) was added to cell culture media. The reaction micture was incubated at 37° C. in a 5% CO2 atmosphere for 4 hours. The supernatant was removed and 150 μl of DMSO was added. The optical density was measured spectrophotometrically at 550 nm. […] For other retinoid derivatives according to the present invention, absorbances were measured by this procedure and IC50 values, concentrations required for 50% growth inhibition, were determined.
# [2] = test system: SK-Hep-1 liver cancer cells; experiment: MTT proliferation assay, SK-Hep-1
# Experimental: as §1, §2
# HeLa cervix cancer cells = experiment: MTT proliferation assay, HeLa; conditions: 48 hours, uterine cancer
# Experimental: as §1, §2
# HT29 colon cancer cells = experiment: MTT proliferation assay, HT29
# Experimental: as §1, §2
# [3] = test system: ZR75-1 breast cancer cells; experiment: MTT proliferation assay, ZR75-1
# Experimental: as §1, §2
# DLD-1 colon cancer cells [4] = experiment: MTT proliferation assay, DLD-1
# Experimental: as §1, §2
# [5] = test system: SKOV-3 ovary cancer cells; experiment: MTT proliferation assay, SKOV-3; conditions: ovarian cancer
# Experimental: as §1, §2
# DLD-1 colon cancer cells [6] = experiment: Trypan blue surviving cell count, DLD-1
# From the text: (§3) Surviving cells, which had not be stained by trypan blue were counted and the results are shown in Table 3 as relative surviving cells (%).
# MMP-2 mRNA expression = experiment: RT-PCR of MMP-2 mRNA in HCT116; conditions: HCT116, 1 μM; for inhibition of MMP-2 mRNA expression: 36 hours
# Experimental: Previously, it was shown that the synthetic retinoid derivatives inhibit the transcriptional activity of AP-1. Also, it is well known that MMP (matrix metalloproteinase), a main target gene of AP-1 is involved in metastasis of cancer cells. Therefore, the inhibitive effects of the retinoid derivatives on metastasis of cancer was examined by RT-PCR analysis. Colon cancer HCT116 cells were treated with 1 μM retinoid for 36 hours. RNA was isolated from the cells and mRNA expression levels of MMP-1, -2 and -3 were analyzed by RT-PCR. […] As the control, GAPDH was used and it was confirmed that its expression was not affected by retinoid. Meanwhile, the expression level of MMP-3 was affected weakly by KCBG40, intermediately by KCBG41 but strongly by KCBG10 (FIG. 9).
# RNA was isolated from the cells and mRNA expression levels of MMP-1, -2 and -3 were analyzed by RT-PCR (FIG. 14).
# RXRβ = target: T2, RXRβ (Homo sapiens, UniProt P28702); experiment: CAT reporter assay, RXRβ; conditions: 1 μM, control = 1.0, RA = 9-cis RA; for expression level of CAT enzyme, RXRβ −: column '−'
# T2 construct: expressed in transfected cells
# T2 sequence (P28702 1-533): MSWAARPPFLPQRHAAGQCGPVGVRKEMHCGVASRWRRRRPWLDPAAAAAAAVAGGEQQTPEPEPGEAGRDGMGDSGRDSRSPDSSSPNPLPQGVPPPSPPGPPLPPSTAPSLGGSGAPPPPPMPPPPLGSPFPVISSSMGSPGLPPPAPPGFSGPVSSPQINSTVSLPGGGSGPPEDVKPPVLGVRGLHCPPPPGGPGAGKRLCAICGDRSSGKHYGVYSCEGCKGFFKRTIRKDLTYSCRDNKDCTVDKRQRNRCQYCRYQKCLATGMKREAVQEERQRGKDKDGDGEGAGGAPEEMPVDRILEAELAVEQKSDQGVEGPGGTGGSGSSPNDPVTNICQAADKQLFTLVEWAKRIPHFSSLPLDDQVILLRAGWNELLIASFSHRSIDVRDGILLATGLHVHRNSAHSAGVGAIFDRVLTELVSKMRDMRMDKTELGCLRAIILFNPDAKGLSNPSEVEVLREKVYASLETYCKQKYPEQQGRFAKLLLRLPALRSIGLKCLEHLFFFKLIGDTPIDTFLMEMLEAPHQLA
# From the text: As the reporter gene, chloramphenicol acetyltransferase (CAT) with a transcription control site reactive to respective receptors was used.
# [7] = test system: SK-Hep-1 liver cancer cells; experiment: Trypan blue surviving cell count, SK-HEP-1
# From the text: as §3
# [8] = test system: MCF-7 breast cancer cells; experiment: MTT proliferation assay, MCF-7; conditions: 48 hours
IC50 ([1]; 48 hours) [µM],IC50 ([2]; 48 hours) [µM],IC50 (HeLa cervix cancer cells) [µM],IC50 (HT29 colon cancer cells; 48 hours) [µM],IC50 ([3]; 48 hours) [µM],IC50 (DLD-1 colon cancer cells [4]; 48 hours) [µM],IC50 ([5]; 48 hours) [µM],Compound,"expression level of CAT enzyme, RARγ + (RARγ)","expression level of CAT enzyme, RARγ − (RARγ)","relative surviving cells (%) (DLD-1 colon cancer cells [6]; DLD-1, 0.5 μM)","relative surviving cells (%) (DLD-1 colon cancer cells [6]; DLD-1, 1 μM)","relative surviving cells (%) (DLD-1 colon cancer cells [6]; DLD-1, 5 μM)","relative surviving cells (%) (DLD-1 colon cancer cells [6]; DLD-1, 10 μM)",inhibition of MMP-2 mRNA expression (MMP-2 mRNA expression),"expression level of CAT enzyme, RXRβ + (RXRβ)","expression level of CAT enzyme, RXRβ − (RXRβ)","relative surviving cells (%) ([7]; SK-HEP-1, 0.5 μM)","relative surviving cells (%) ([7]; SK-HEP-1, 1 μM)","relative surviving cells (%) ([7]; SK-HEP-1, 5 μM)","relative surviving cells (%) ([7]; SK-HEP-1, 10 μM)",other results
,,,,,,,"CC1=C(/C=C/C(C)=C/C=C/C(C)=C/C(=O)O)C(C)(C)CCC1 [ATRA, All-trans-retinoic acid, reference compound]",49.3,14.1,,,,,,,,,,,,"IC50 ([1]; Homo sapiens, MDA-MB-231, 48 hours): > 100 µM; IC50 ([2]; Homo sapiens, SK-HEP1, 48 hours): > 500 µM; IC50 (HeLa cervix cancer cells; Homo sapiens, HeLa): 5 µM; IC50 (HT29 colon cancer cells; Homo sapiens, HT-29, 48 hours): 18 µM; IC50 ([3]; Homo sapiens, ZR-75-1, 48 hours): > 500 µM; IC50 (DLD-1 colon cancer cells [4]; Homo sapiens, DLD-1, 48 hours): 20 µM; IC50 ([5]; Homo sapiens, SK-OV-3, 48 hours): > 100 µM"
3.5,4.5,0.5,6,2,6,0.5,"CCCC(=O)Oc1cc(O)ccc1NC(=O)/C=C(C)/C=C/C=C(C)/C=C/C1=C(C)CCCC1(C)C [KCBG10, 2.2-[(2E,4E,6E,8E)-3,7-Dimethyl-9-(2,6,6-trimethylcyclohex-1-enyl)-nona-2,4,6,8-tetraenoylamino]-5-hydroxyphenylbutanoate]",,,,,,,weakly,,,,,,,IC50 [8]: 1.3 µM
3.3,0.8,3,1.2,4.1,1.5,3,"CCCC(=O)Nc1cc(NC(=O)/C=C(C)/C=C/C=C(C)/C=C/C2=C(C)CCCC2(C)C)ccc1O [KCBG41, (2E,4E,6E,8E)-[3,7-dimethyl-9-(2,6,6-trimethylcyclohex-1-enyl)-nona-2,4,6,8-tetraenoylamino]-(3-butyrylamino-4-hydroxy)phenylamide]",,,,,,,strongly,,,,,,,IC50 [8]: 5.5 µM
,,,,,,,CCCC(=O)Oc1ccc(NC(=O)/C=C(C)/C=C/C=C(C)/C=C/C2=C(C)CCCC2(C)C)cc1 [KCBG60],1.9,0.6,95,85,60,30,,1.1,0.5,90,75,48,10,MMP-2 inhibitory expression level compared to ATRA (MMP-2 mRNA expression; 24 hours): two times higher
,,,,,,,phenyl butylate,1.1,0.8,105,103,102,92,,1.1,0.5,102,103,95,87,effect on expression of MMP-2 (MMP-2 mRNA expression; 24 hours): did not affect expression of MMP-2 at all

Compound,IC50 ([1]; 48 hours) [µM],IC50 ([2]; 48 hours) [µM],IC50 (HeLa cervix cancer cells) [µM],IC50 (HT29 colon cancer cells; 48 hours) [µM],IC50 ([3]; 48 hours) [µM],IC50 (DLD-1 colon cancer cells [4]; 48 hours) [µM],IC50 ([5]; 48 hours) [µM],"expression level of CAT enzyme, RARγ + (RARγ)","expression level of CAT enzyme, RARγ − (RARγ)","relative surviving cells (%) (DLD-1 colon cancer cells [6]; DLD-1, 0.5 μM)","relative surviving cells (%) (DLD-1 colon cancer cells [6]; DLD-1, 1 μM)","relative surviving cells (%) (DLD-1 colon cancer cells [6]; DLD-1, 5 μM)","relative surviving cells (%) (DLD-1 colon cancer cells [6]; DLD-1, 10 μM)",inhibition of MMP-2 mRNA expression (MMP-2 mRNA expression),"expression level of CAT enzyme, RXRβ + (RXRβ)","expression level of CAT enzyme, RXRβ − (RXRβ)","relative surviving cells (%) ([7]; SK-HEP-1, 0.5 μM)","relative surviving cells (%) ([7]; SK-HEP-1, 1 μM)","relative surviving cells (%) ([7]; SK-HEP-1, 5 μM)","relative surviving cells (%) ([7]; SK-HEP-1, 10 μM)",other results
"CC1=C(/C=C/C(C)=C/C=C/C(C)=C/C(=O)Nc2ccc(O)cc2)C(C)(C)CCC1 [HPR, (2E,4E,6E,8E)-[3,7-dimethyl-9-(2,6,6-trimethylcyclohex-1-enyl)-nona-2,4,6,8-tetraenoylamino]-4-hydroxyphenylamide]",10,> 100,3,8,15,9,2,24.8,4.5,94,85,63,28,affected very little,1.4,0.6,90,73,45,15,IC50 [8]: 7 µM
